Source: patent US11466007B2, “Substituted lactams showing serotonin 5-HT receptor activity” (Sumitomo Pharma Co., Ltd., priority 2018, dated 2022)
Read-outs that look alike come from different tables or passages of the source.

Key:
human D2 receptor = human D2 receptor (Homo sapiens (Human), UniProt P14416); assay: Test 1: binding activity for human D2 receptor ([3H]Spiperone); conditions: for D2 Ki/5-HT1A Ki: ratio of D2 Ki to 5-HT1A Ki; for Ki: CHO cell membrane fraction, [3H]Spiperone; for D2 Ki/5-HT2A Ki: ratio of D2 Ki to 5-HT2A Ki
Chain of human D2 receptor (P14416 whole entry): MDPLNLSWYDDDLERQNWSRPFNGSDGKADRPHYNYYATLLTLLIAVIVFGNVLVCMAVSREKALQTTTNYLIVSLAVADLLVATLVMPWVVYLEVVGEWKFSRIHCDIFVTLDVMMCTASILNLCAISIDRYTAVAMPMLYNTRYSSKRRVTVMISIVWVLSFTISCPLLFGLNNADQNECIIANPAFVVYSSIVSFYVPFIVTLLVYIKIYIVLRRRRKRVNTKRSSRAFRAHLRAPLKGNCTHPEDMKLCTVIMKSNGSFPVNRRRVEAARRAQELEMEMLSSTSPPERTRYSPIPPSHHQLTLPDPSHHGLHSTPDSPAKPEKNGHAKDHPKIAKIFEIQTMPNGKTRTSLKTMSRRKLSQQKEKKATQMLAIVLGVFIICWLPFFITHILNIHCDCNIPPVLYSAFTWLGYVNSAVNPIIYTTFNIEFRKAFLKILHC
Method: (§1) Test 1: Evaluation of Binding Activity for Human 5-HT1A Receptor, Human 5-HT2A Receptor, and Human D2 Receptor
(§2) Binding affinity of the present compound for human 5-HT1A receptor, human 5-HT2A receptor, and human D2 receptor was measured by the following procedures.
(§3) Each mixture was incubated at room temperature for 60 minutes. Then, the mixture was added quickly on a glassfiber filter plate (Multiscreen FB, Millipore, Inc.) coated with 0.3% aqueous polyethylenimine, and vacuum-filtered. Radioactivity remaining on the filter was measured with a liquid scintillation counter (PerkinElmer, Inc.). Binding inhibition rate was calculated from the following formula.
(§4) Ki of each compound was calculated from the following formula. Binding inhibition constant (Ki)=IC50/(1+S/Kd) wherein S is concentration of ligand; Kd is a binding dissociation constant of ligand to membrane, which is calculated from a saturated binding experiment conducted with the same cell membrane. A small Ki value means strong binding ability to a receptor.

[1] = Test 4: metabolic stability test in human hepatic microsome; format: in vitro ADME; conditions: 0.1 mg/mL microsome, 0.1 μmol/L compound, NADPH, 37° C., 30 minutes
Method: Test 4: Metabolic Stability Test in Human Hepatic Microsome
The stability of the present compound in human hepatic microsome metabolism was evaluated as mentioned below. Human hepatic microsome was obtained from Xenontech. Human hepatic microsome, NADPH, and each test compound were mixed in 25 mmol/L phosphate buffer solution (pH 7.4) to reach the following concentrations as shown below, and the mixture was incubated at 37° C. for 30 minutes. • Human hepatic microsome: 0.1 mg/mL • NAPDH: 3.2 mmol/L • Test compound: 0.1 μmol/L
The residual ratio of the test compound in each sample after 30 minutes was measured by LC-MS, and the metabolic stability in human hepatic microsome was calculated from the following formula. Metabolic stability in human hepatic microsome (mL/min/mg protein)=−LN(residual ratio)/30/0.1

P-gp (MDR1) = P-gp (MDR1) (Homo sapiens (Human), UniProt P08183); assay: Test 9: P-gp substrate property (NFR, MDCKII and MDR1-MDCKII cells); format: in vitro ADME; conditions: ratio of Papp B-A/Papp A-B in MDR1-MDCKII cells to that in MDCKII cells
Chain of P-gp (MDR1) (P08183 whole entry, species assumed): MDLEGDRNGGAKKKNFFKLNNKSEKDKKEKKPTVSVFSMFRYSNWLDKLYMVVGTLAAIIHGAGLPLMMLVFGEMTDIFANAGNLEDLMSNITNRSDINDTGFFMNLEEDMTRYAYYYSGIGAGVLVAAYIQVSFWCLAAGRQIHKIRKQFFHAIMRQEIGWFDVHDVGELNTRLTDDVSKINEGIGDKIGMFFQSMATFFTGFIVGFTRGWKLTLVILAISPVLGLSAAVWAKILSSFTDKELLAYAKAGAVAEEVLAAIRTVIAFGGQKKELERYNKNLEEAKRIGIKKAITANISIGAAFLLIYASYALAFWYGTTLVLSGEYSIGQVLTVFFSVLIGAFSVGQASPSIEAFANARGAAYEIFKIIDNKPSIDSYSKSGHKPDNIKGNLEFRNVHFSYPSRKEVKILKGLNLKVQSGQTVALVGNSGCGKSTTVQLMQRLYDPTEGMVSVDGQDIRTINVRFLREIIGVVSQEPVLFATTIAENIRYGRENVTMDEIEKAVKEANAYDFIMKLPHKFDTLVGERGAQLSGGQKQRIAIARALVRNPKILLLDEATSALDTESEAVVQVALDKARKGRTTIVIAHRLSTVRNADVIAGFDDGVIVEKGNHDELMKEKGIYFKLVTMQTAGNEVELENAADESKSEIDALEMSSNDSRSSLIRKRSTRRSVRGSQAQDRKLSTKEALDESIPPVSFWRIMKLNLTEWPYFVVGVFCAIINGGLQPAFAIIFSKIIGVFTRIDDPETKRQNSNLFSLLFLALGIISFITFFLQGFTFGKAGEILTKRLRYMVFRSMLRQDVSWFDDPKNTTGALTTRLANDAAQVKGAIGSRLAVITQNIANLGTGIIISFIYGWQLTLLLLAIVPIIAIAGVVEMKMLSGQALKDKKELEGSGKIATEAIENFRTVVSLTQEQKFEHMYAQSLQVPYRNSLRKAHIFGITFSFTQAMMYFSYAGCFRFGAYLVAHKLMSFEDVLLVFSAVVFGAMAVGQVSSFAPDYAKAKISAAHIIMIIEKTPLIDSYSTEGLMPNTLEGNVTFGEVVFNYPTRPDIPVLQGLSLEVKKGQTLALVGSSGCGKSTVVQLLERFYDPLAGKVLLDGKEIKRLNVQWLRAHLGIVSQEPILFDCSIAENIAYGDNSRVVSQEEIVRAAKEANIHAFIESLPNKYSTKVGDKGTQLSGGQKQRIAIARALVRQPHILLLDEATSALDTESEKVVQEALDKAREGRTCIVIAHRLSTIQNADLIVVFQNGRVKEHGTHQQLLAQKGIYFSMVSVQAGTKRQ
Method: Evaluation test for binding was carried out as follows with the CHO cell membrane fraction in which human target receptor was expressed. […] Each mixture was incubated at room temperature, added quickly on a glassfiber filter plate (Multiscreen FB, Millipore, Inc.), and vacuum-filtered. Radioactivity remaining on the filter was measured with a liquid scintillation counter (PerkinElmer, Inc.). Binding inhibition rate was calculated from the following formula.
NFR (Net Flux Ratio), which is an index of P-gp substrate property, can be calculated as follows. MDCKII (Madin-Darby canine kidney strain II) cells and MDR1-MDCKII cells in which MDR1 (multidrug resistance protein 1) was overexpressed were used to measure an apparent permeability coefficient (Papp A-B) from lumen (A) to basement membrane (B) and an apparent permeability coefficient (Papp B-A) from basement membrane (B) to lumen (A) of both MDCKII cells and MDR1-MDCKII cells. NFR (Net Flux Ratio) was calculated from the ratio between Ratio (Papp B-A/Papp A-B) of an apparent permeability coefficient of MDR1-MDCKII cells and Ratio of an apparent permeability coefficient of MDCKII cells.

human 5-HT1A receptor [2] = target: T1, human 5-HT1A receptor (Homo sapiens (Human), UniProt P08908); assay: Test 1: binding activity for human 5-HT1A receptor ([3H]8-OH-DPAT); conditions: CHO cell membrane fraction
T1 sequence (P08908 whole entry): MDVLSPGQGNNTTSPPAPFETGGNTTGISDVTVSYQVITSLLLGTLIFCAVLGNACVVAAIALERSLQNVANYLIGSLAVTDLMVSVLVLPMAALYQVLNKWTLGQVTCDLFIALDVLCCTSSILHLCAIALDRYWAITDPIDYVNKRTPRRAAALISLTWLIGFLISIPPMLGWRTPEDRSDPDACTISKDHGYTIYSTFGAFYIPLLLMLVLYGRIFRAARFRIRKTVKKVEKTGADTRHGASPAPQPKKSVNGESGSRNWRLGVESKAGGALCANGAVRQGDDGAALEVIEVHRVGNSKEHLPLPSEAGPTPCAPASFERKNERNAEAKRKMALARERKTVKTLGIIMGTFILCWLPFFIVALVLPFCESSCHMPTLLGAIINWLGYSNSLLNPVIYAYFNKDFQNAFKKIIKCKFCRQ
Method: as §1, §2, §3
IC50 value was calculated by Hill analysis (Physiology, 1910, 40, 190-200). Ki of each compound was calculated from the following formula. Binding inhibition constant (Ki)=IC50/(1+S/Kd) wherein S is concentration of ligand; Kd is a binding dissociation constant of ligand to membrane, which is calculated from a saturated binding experiment conducted with the same cell membrane. A small Ki value means strong binding ability to a receptor.

human 5-HT1A receptor [3] = target: T1, human 5-HT1A receptor; assay: Test 2: agonist activity for human 5-HT1A receptor ([35S]GTPγS binding); format: biochemical
Method: Test 2: Evaluation of Agonist Activity for Human 5-HT1A Receptor
CHO cell membrane fraction in which human 5-HT1A receptor was expressed as used in Test 1 was purchased. To a buffer containing guanosine diphosphate were added a test compound dissolved in DMSO, each receptor membrane sample diluted with buffer, and [^35S] Guanosine 5′-O-[gamma-thio]triphosphate (GTPγS). The mixture was incubated at room temperature for 60 minutes. Then, the mixture was added quickly on a glassfiber filter plate (Multiscreen FB, Millipore, Inc.), and vacuum-filtered. Radioactivity remaining on the […] was measured with a liquid scintillation counter. Agonist activity was calculated from the following formula.

human 5-HT2A receptor = human 5-HT2A receptor (Homo sapiens (Human), UniProt P28223); assay: Test 1: binding activity for human 5-HT2A receptor ([3H]Ketanserin); conditions: CHO cell membrane fraction
Chain of human 5-HT2A receptor (P28223 whole entry): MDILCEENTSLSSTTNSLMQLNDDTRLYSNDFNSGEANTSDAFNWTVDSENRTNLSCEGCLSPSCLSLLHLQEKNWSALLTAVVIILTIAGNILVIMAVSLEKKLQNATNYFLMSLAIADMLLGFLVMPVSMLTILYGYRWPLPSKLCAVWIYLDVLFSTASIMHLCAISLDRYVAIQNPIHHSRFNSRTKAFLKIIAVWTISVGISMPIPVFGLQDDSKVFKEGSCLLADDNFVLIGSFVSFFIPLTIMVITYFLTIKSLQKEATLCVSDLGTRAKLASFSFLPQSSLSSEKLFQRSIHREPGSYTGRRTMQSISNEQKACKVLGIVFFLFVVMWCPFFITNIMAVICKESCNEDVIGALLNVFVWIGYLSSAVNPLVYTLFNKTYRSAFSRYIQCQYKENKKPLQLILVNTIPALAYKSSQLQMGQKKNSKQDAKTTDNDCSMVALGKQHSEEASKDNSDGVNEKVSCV
Method: as §1, §2, §3, §4

hERG channel = hERG channel (Homo sapiens (Human), UniProt Q12809); assay: Test 6-1: inhibitory activity for hERG channel (auto patch clamp, Qpatch); format: cell-based; conditions: for IC50: hERG-CHO cells, whole cell patch clamp, Qpatch, read-out: hERG inhibition IC50
Chain of hERG channel (Q12809 whole entry): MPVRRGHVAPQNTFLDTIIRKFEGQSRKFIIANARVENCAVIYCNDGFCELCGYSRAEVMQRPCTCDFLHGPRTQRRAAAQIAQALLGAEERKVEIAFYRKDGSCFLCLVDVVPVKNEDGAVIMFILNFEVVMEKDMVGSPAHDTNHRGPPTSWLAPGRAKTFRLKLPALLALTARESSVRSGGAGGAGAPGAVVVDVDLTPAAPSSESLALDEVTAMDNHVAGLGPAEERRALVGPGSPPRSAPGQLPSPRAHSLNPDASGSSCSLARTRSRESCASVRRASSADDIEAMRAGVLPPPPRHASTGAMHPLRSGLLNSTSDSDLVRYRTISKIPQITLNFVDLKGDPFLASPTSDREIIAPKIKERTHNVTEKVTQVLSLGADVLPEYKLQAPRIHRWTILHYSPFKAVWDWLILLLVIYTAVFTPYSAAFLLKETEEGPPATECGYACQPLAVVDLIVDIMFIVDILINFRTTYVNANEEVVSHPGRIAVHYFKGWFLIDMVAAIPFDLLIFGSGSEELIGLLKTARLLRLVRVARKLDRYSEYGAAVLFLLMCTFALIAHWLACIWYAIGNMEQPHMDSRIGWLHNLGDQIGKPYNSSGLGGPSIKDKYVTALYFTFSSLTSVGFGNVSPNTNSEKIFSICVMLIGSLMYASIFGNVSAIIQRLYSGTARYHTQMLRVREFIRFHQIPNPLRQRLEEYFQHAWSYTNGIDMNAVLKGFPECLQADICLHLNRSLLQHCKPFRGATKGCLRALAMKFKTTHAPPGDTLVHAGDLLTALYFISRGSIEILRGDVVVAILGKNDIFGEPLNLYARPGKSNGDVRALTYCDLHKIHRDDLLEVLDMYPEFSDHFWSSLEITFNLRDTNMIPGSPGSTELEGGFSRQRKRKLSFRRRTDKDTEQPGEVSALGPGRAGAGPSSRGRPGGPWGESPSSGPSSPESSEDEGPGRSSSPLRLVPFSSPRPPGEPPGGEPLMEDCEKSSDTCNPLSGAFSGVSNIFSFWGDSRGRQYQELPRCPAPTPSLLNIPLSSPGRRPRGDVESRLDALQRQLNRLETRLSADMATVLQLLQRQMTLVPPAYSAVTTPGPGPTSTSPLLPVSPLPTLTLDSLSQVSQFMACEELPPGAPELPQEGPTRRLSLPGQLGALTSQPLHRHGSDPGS
Method: Test 6-1: Evaluation of Inhibitory Activity for hERG Channel
Inhibitory activity of the present compound for hERG channel was measured by whole cell patch clamp method with an auto patch clamp system using CHO cells in which hERG channel involved in human rapidly activating delayed rectifier potassium current (IKr) was forcibly expressed.
hERG-CHO cells purchased from ChanTest Cop. were cultured in a CO2 incubator at 37° C., and dissociated from a flask with trypsin shortly before the measurement of hERG current, to prepare a cell suspension.
Extracellular and intracellular fluid used in the measurement were prepared as follows.
Extracellular fluid: 2 mmol/L CaCl2, 1 mmol/L MgCl2, 10 mmol/L HEPES, 4 mmol/L KCl, 145 mmol/L NaCl, 10 mmol/L Glucose
Intracellular fluid: 5.4 mmol/L CaCl2, 1.8 mmol/L MgCl2, 10 mmol/L HEPES, 31 mmol/L KOH, 10 mmol/L EGTA, 120 mmol/L KCl, 4 mmol/L Na2-ATP
Test compound solution: Test compound was dissolved in DMSO to reach the concentration of 2 mmol/L or 20 mmol/L, in order to prepare a test compound solution. […] (Measurement of Current Value and Data Analysis)
The cell suspension, the extracellular fluid, the intracellular fluid, and the measurement plate were set in the auto patch clamp system, and hERG current was measured by whole cell patch clamp method. […] Each pulse interval was 15 seconds. The data analysis was carried out with Qpatch Assay Software (Biolin Scientific). The test was carried out by applying incrementally 4 concentrations of each test compound, and the average of the maximum peak tail currents which were obtained from the last 3 stimulations in each concentration was determined as the evaluated data. Based on the current inhibition rate for a pre-applied current at each concentration of each test compound, IC50 value was calculated by Hill equation with the software.

[4] = agonist activity in the presence of 10 μM compound, relative to 100 μmol/L 5-HT

Row | Compound | D2 Ki/5-HT1A Ki (human D2 receptor) | Metabolic stability in human hepatic microsome [1] [mL/min/mg protein] | NFR (Net Flux Ratio) (P-gp (MDR1)) | Ki (human 5-HT1A receptor [2]) [nM] | Ki (human D2 receptor) [nM] | Emax at 10 µM (human 5-HT1A receptor [3]; [4]) [%] | other results
1 | Cn1ccc2c1CCN(CCN1CCC(c3noc4ccccc34)CC1)C2=O [Example 60] | 19 | 0.018 | 1.5 |  |  |  | 
2 | COc1cc2c(cn1)C(=O)N(CCN1CCC(c3noc4ccccc34)CC1)CC2 [Example 20] |  | 0.091 |  | 0.77 | 1890 |  | 5-HT1A agonist activity Emax (human 5-HT1A receptor [3]; [4]): 52%
3 | Cn1nc(Br)c2c1CCN(CCN1CCN(c3nsc4ccccc34)CC1)C2=O [Example 69] |  |  |  | 10.4 | 360 | 45 | 
4 | Cc1ccc2c(C3CCN(CCn4ccc5cccnc5c4=O)CC3)noc2c1 [Example 118] | 3.8 |  |  | 73.1 | 276 | 5 | Ki (human 5-HT2A receptor): 10 nM; D2 Ki/5-HT2A Ki (human D2 receptor): 27.6
5 | COc1ccc2c(n1)C(=O)N(CCN1CCN(c3noc4ccccc34)CC1)CC2 [Example 186] |  | 0.095 |  | 16.5 | 1280 | 39 | EC50 (human 5-HT1A receptor [3]; [35S]GTPγS binding, CHO cell membrane fraction expressing human 5-HT1A receptor): 97 nM; IC50 (hERG channel): 2 µM
6 | Cn1cnc2c1CCN(CCN1CCN(c3nsc4ccccc34)CC1)C2=O [Example 54] |  | <0.01 | 6.6 |  |  |  | 
7 | Cn1ncc2c1C(=O)N(CCN1CCN(c3nsc4ccccc34)CC1)CC2 [Example 59] | 63 |  | 1.1 |  |  |  | 
8 | O=C1c2nc(Cl)ccc2CCN1CCN1CCC(c2noc3ccccc23)CC1 [Example 146] |  | <0.05 | 2.3 |  |  |  | 
9 | COc1ncc2c(n1)CCN(CCN1CCN(c3noc4ccccc34)CC1)C2=O [Example 179] | >35.3 | <0.05 |  | 283 | > 10000 |  | Ki (human 5-HT2A receptor): 22.9 nM; D2 Ki/5-HT2A Ki (human D2 receptor): >437.6; IC50 (hERG channel): > 10 µM; hERG inhibition IC50 (nmol/L)/5-HT1A Ki (nmol/L) (hERG channel; ratio of hERG IC50 to 5-HT1A Ki): >35; hERG inhibition IC50 (nmol/L)/5-HT2A Ki (nmol/L) (hERG channel; ratio of hERG IC50 to 5-HT2A Ki): >438
10 | Cc1cncc2c1CCN(CCN1CCN(c3noc4ccccc34)CC1)C2=O [Example 137] | 5.8 | <0.05 |  |  |  |  | 
11 | Cn1ncc2c1C(=O)N(CCN1CCC(c3noc4ccccc34)CC1)CC2 [Example 96, 6-{2-[4-(1,2-Benzoisoxazol-3-yl)piperidin-1-yl]ethyl}-1-methyl-1,4,5,6-tetrahydro-7H-pyrazolo[3,4-c]pyridin-7-one] | 9 | 0.019 |  |  |  |  | D2 Ki/5-HT2A Ki (human D2 receptor): 14
12 | O=C1c2cnccc2CCN1CCN1CCC(c2noc3ccccc23)CC1 [Example 13] |  | <0.01 |  |  |  | 56 | Ki (human 5-HT2A receptor): 8.4 nM
13 | O=C1c2cnc(OC3COC3)cc2CCN1CCN1CCN(c2nsc3ccccc23)CC1 [Example 111, 2-{2-[4-(1,2-Benzoisothiazol-3-yl)piperazin-1-yl]ethyl}-6-[(oxetan-3-yl)oxy]-3,4-dihydro-2,7-naphthyridin-1(2H)-one] |  |  |  |  |  |  | D2 Ki/5-HT2A Ki (human D2 receptor): 530
14 | CCc1ccc2c(n1)C(=O)N(CCN1CCC(c3noc4ccccc34)CC1)CC2 [Example 185] |  | <0.05 | 2.4 |  |  |  | 
15 | Cn1cnc2c1CCCN(CCN1CCC(c3noc4ccccc34)CC1)C2=O [Example 101, 5-{2-[4-(1,2-Benzoisoxazol-3-yl)piperidin-1-yl]ethyl}-1-methyl-5,6,7,8-tetrahydroimidazo[4,5-c]azepin-4(1H)-one] | 17 |  |  |  |  |  | 
16 | Cc1cc2c(cn1)C(=O)N(CCN1CCC(c3noc4ccccc34)CC1)CC21CC1 [Example 21] |  | 0.323 |  | 8.62 | 2120 | 59 | IC50 (hERG channel; human, CHO cells expressing hERG channel): 8 µM
